{
  "source": "patent US10865417B2",
  "about": "“Yeast synthetic biology platform for identifying shikimate pathway enzyme inhibitors” (New York University, priority 2018, dated 2020)",
  "key": {"[1]": {"system": "Staphylococcus aureus pathway", "test": "Yeast avatar glyphosate sensitivity assay, Staphylococcus aureus pathway", "format": "cell-based", "settings": "aro1Δ yeast carrying Staphylococcus aureus pathway, 0.25% glyphosate, FIG. 3"}, "[2]": {"system": "step 6 (EPSPS) of Neisseria gonorrhoeae", "test": "N−1 assay for molecular target of glyphosate, [Sau HGC] lacking step 6", "format": "cell-based, yeast (aro1Δ) carrying Neisseria gonorrhoeae pathway", "settings": "aro1Δ [Ngo] yeast with [Sau HGC] lacking step 6, −AAA, 0.25% glyphosate", "description": "(§1) FIG. 6. Molecular target identification of the shikimate pathway inhibitor glyphosate in the yeast avatar system. Yeast cells lacking ARO1 (aro1Δ) carrying the Neisseria gonorrhoeae pathway ([Ngo]) or an empty vector (empty) were co-transformed with a full-length Staphylococcus aureus pathways ([Sau HGC]), one of five derivatives of [Sau HGC] lacking a single enzymatic activity (step 2, step 3, step 4, step 5, step 6), or an empty vector (empty) lacking all shikimate pathway enzymatic activities. Cells were plated on replete medium including aromatic amino acids (+AAA) or selective medium lacking aromatic amino acids (−AAA). 0.25% glyphosate (vol/vol of a commercially available 41% solution of glyphosate) was added to the plates where indicated. Cell growth indicates complementation and absence of cell growth indicates no complementation.\n(§2) As discussed above, five steps of the endogenous shikimate pathway are provided by a single gene, ARO1, which encodes a penta-functional protein (FIG. 1, 2). […] To distinguish between these possibilities and determine whether any of the heterologous enzymatic activities are functional in yeast, the “N−1” assay can be used. […] Each of the five strains can then be evaluated for complementation on medium lacking aromatic amino acids. […]"}, "[3]": {"biological_target": "T1, step 2 (DHQS) of Neisseria gonorrhoeae (Neisseria gonorrhoeae, UniProt Q5FAD4)", "T1 construct": "expressed in transfected cells; host or cells: Saccharomyces cerevisiae aro1Δ, co-transformed with [Sau HGC] lacking step 2", "T1 sequence (Q5FAD4 whole entry)": "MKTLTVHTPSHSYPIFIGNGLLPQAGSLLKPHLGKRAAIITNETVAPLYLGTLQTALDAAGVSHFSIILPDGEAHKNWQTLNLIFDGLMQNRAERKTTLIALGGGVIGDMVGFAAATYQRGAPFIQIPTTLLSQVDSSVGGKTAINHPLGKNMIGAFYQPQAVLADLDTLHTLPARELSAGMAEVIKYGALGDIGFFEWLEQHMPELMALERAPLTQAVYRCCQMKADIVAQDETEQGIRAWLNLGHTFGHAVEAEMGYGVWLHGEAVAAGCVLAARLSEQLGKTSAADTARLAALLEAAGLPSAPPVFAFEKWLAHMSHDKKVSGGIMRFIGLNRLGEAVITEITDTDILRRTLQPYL", "test": "N−1 assay for molecular target of glyphosate, [Sau HGC] lacking step 2", "format": "cell-based", "settings": "aro1Δ [Ngo] yeast with [Sau HGC] lacking step 2, −AAA, 0.25% glyphosate", "description": "as §1, §2"}, "[4]": {"system": "yeast avatars expressing heterologous shikimate pathways (EPSPS enzyme)", "test": "Yeast avatar glyphosate sensitivity assay (panel of avatars)", "format": "cell-based, Saccharomyces cerevisiae"}, "[5]": {"system": "Neisseria gonorrhoeae pathway", "test": "Yeast avatar glyphosate sensitivity assay, Neisseria gonorrhoeae pathway", "format": "cell-based", "settings": "aro1Δ yeast carrying Neisseria gonorrhoeae pathway, 0.25% glyphosate, FIG. 3"}, "[6]": {"biological_target": "step 2 of the pathway, DHQS (Escherichia coli, UniProt P07639)", "sequence (P07639 whole entry)": "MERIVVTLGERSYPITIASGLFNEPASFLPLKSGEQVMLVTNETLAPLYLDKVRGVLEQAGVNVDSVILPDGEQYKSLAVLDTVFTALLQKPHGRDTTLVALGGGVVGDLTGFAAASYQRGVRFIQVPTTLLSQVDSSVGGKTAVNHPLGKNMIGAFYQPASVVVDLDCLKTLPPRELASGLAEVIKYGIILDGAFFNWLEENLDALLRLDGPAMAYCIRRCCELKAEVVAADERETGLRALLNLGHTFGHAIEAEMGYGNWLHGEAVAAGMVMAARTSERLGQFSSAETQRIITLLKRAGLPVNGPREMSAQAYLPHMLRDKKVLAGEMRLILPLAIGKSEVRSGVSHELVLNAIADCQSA", "settings": "reference (25); cited from earlier work"}},
  "data": [
    {"smiles": "O=C(O)CNCP(=O)(O)O", "note": "[glyphosate]", "values": [
      {"measurement": "growth of avatar on glyphosate (sensitivity/resistance)", "setting": "[1]", "result": "resistant"},
      {"measurement": "cell growth", "setting": "[2]", "result": "completely inhibited"},
      {"measurement": "sensitivity of enzymatic activity to glyphosate", "setting": "[2]", "result": "sensitive"},
      {"measurement": "cell growth", "setting": "[3]", "result": "completely inhibited"},
      {"measurement": "sensitivity of enzymatic activity to glyphosate", "setting": "[3]", "result": "sensitive"},
      {"measurement": "ability of yeast avatars to grow on glyphosate", "setting": "[4]; 0.25% glyphosate (vol/vol of 41% solution), medium lacking aromatic amino acids, 6 days at 30° C., a number of avatars", "result": "sensitive"},
      {"measurement": "glyphosate sensitivity upon supplementation of aromatic amino acids", "setting": "[4]; 0.25% glyphosate, plus tryptophan, phenylalanine and tyrosine", "result": "glyphosate sensitivity was overcome"},
      {"measurement": "growth of avatar on glyphosate (sensitivity/resistance)", "setting": "[5]", "result": "demonstrated sensitivity"},
      {"measurement": "inhibition of DHQS", "setting": "[6]", "result": "inhibits"}
    ]}
  ]
}
